Values after ≈ are worked out from the molar mass of the structure shown.
What was measured:
MCF7 [1] = experiment: Antiproliferative activity against human MCF-7 cells assessed as inhibition of cell growth measured after 48 hrs by SRB assay; type: functional, cell-based; conditions: MCF7, 48 h
MDA-MB-231 = experiment: Antiproliferative activity against human MDA-MB-231 cells assessed as inhibition of cell growth measured after 48 hrs by SRB assay; type: functional, cell-based; conditions: MDA-MB-231, 48 h, read-out: IC50
HCT-116 = experiment: Antiproliferative activity against human HCT-116 cells assessed as inhibition of cell growth measured after 48 hrs by SRB assay; type: functional, cell-based; conditions: HCT-116, 48 h
A549 = experiment: Antiproliferative activity against human A549 cells assessed as inhibition of cell growth measured after 48 hrs by SRB assay; type: functional, cell-based; conditions: A549, 48 h
THP-1 = experiment: Antiproliferative activity against human THP-1 cells assessed as inhibition of cell growth measured after 48 hrs by SRB assay; type: functional, cell-based; conditions: THP-1, 48 h
[2] = Inhibition of bovine brain tubulin polymerisation measured by turbidometric method; type: tissue-based, Bos taurus
[3] = target: DNA topoisomerase 2-alpha (Homo sapiens) (UniProt P11388); experiment: Inhibition of DNA-topoisomerase 2 in human MCF7 cells using kinetoplast DNA as substrate at 120 uM measured by ELISA; type: cell-based
Sequence of DNA topoisomerase 2-alpha (Homo sapiens) (P11388 whole entry): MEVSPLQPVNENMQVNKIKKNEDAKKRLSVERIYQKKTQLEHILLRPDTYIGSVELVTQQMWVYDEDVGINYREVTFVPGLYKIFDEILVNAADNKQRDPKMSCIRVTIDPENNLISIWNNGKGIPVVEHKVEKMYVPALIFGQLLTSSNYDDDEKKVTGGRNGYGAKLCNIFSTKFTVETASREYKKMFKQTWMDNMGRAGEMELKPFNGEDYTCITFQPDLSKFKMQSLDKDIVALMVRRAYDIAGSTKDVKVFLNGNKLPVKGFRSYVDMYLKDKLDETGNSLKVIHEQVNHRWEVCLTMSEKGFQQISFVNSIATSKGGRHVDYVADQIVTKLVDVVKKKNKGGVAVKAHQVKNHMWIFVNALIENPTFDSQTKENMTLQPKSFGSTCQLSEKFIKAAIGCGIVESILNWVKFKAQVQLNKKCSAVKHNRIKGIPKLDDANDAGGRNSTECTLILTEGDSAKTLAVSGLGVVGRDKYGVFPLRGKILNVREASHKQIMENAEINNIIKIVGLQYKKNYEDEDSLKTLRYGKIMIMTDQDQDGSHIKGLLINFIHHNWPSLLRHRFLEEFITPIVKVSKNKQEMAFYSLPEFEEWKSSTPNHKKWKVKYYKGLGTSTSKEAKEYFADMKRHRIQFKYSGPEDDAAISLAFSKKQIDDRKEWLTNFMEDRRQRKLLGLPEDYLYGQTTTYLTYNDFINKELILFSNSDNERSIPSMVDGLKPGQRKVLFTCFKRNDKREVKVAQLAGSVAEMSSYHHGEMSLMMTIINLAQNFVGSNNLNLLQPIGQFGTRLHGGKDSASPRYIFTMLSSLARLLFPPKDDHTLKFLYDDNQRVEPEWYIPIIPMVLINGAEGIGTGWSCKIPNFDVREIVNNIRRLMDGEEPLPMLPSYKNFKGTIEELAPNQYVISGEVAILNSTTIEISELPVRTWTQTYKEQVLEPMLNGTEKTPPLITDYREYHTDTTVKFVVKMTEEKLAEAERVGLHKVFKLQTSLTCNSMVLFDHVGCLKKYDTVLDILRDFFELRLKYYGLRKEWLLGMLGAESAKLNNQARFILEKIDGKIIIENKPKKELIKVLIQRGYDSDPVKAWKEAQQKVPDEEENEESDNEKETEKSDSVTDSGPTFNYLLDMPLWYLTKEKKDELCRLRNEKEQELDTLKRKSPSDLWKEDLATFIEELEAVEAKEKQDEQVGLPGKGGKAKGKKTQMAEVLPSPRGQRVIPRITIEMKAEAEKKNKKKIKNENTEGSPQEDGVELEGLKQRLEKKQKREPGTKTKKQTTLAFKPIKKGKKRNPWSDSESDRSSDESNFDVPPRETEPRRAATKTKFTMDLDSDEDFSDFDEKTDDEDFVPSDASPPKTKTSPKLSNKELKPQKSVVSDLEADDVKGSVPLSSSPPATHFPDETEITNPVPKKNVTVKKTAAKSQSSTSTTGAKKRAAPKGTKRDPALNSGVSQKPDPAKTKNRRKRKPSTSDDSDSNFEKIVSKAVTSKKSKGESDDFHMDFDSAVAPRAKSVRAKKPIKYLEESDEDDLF

MCF7 [4] = experiment: Antiproliferative activity against human MCF-7 cells assessed as inhibition of colony formation measured after 3 weeks by crystal violet staining based soft agar colony formation assay; type: functional, cell-based; conditions: MCF7, 504 h

SMILES: COc1cc(COC(c2ccc(OC)c(OC)c2OC)c2cccc3ccccc23)cc(OC)c1 (stereo not given)
- IC50 (MCF7 [1]): > 20 µM
- IC50 (MDA-MB-231): > 20 µM
- IC50 (HCT-116): > 20 µM
- IC50 (A549): 17.5 µM
- IC50 (THP-1): > 20 µM

SMILES: COc1ccc(C(O)(Cc2ccc(C)cc2)c2cccc3ccccc23)c(OC)c1OC (stereo not given)
- IC50 (MCF7 [1]): > 20 µM
- IC50 (MDA-MB-231): > 20 µM
- IC50 (HCT-116): > 20 µM
- IC50 (A549): 18.7 µM
- IC50 (THP-1): > 20 µM

SMILES: COc1ccc(C(OCc2ccc(C)cc2)c2cccc3ccccc23)c(OC)c1OC (stereo not given)
- IC50 (MCF7 [1]): 10.7 µM
- IC50 (MDA-MB-231): > 20 µM
- IC50 (HCT-116): > 20 µM
- IC50 (A549): 15.7 µM
- IC50 (THP-1): > 20 µM

SMILES: COc1ccc(C(c2ccc(OCC(=O)O)cc2)c2cccc3ccccc23)c(OC)c1OC (stereo not given)
- IC50 (MCF7 [1]): > 20 µM
- IC50 (MDA-MB-231): > 20 µM
- IC50 (HCT-116): 5.02 µM
- IC50 (A549): 16.4 µM
- IC50 (THP-1): > 20 µM

SMILES: CCOC(=O)CO/N=C(/c1ccc(OC)c(OC)c1OC)c1cccc2ccccc12
- IC50 (MCF7 [1]): > 20 µM
- IC50 (MDA-MB-231): 16.4 µM
- IC50 (HCT-116): 3.36 µM
- IC50 (A549): 6.72 µM
- IC50 (THP-1): > 20 µM

SMILES: COc1ccc(C(O)(C/C=C\c2ccccc2)c2cccc3ccccc23)c(OC)c1OC (stereo not given)
- IC50 (MCF7 [1]): 10.2 µM
- IC50 (MDA-MB-231): 12.8 µM
- IC50 (HCT-116): > 20 µM
- IC50 (A549): 17.6 µM
- IC50 (THP-1): 19.4 µM

SMILES: CCOC(=O)/C=C/CO/N=C(/c1ccc(OC)c(OC)c1OC)c1cccc2ccccc12
- IC50 (MCF7 [1]): > 20 µM
- IC50 (MDA-MB-231): > 20 µM
- IC50 (HCT-116): > 20 µM
- IC50 (A549): 14 µM
- IC50 (THP-1): > 20 µM

SMILES: COc1ccc(/C(=C/c2ccc(F)cc2)c2cccc3ccccc23)c(OC)c1OC
- IC50 (MCF7 [1]): 10.5 µM
- IC50 (MDA-MB-231): > 20 µM
- IC50 (HCT-116): > 20 µM
- IC50 (A549): 18.6 µM
- IC50 (THP-1): 18.9 µM

SMILES: COc1cc([C@@H]2c3cc4c(cc3[C@H](O)[C@H]3COC(=O)[C@H]23)OCO4)cc(OC)c1OC [PODOFILOX]
- IC50 (MCF7 [1]): 10.9 µM
- IC50 (MDA-MB-231): 5.73 µM
- IC50 (HCT-116): > 20 µM
- IC50 (A549): 7.34 µM
- IC50 (THP-1): 19.6 µM
- IC50 [2]: 0.72 µM
- inhibition [3]: 26.9%

SMILES: COc1ccc(C(c2ccc(OC(C)CN(C)C)cc2)c2cccc3ccccc23)c(OC)c1OC (stereo not given)
- IC50 (MCF7 [1]): 13.1 µM
- IC50 (MDA-MB-231): 4.34 µM
- IC50 (HCT-116): 8.41 µM
- IC50 (A549): 11.4 µM
- IC50 (THP-1): 15 µM

SMILES: CCOC(=O)CCO/N=C(/c1ccc(OC)c(OC)c1OC)c1cccc2ccccc12
- IC50 (MCF7 [1]): > 20 µM
- IC50 (MDA-MB-231): 15.2 µM
- IC50 (HCT-116): 10 µM
- IC50 (A549): 19.6 µM
- IC50 (THP-1): > 20 µM

SMILES: COc1ccc(/C(=N/O)c2cccc3ccccc23)c(OC)c1OC
- IC50 (MCF7 [1]): > 20 µM
- IC50 (MDA-MB-231): 2.5 µM
- IC50 (HCT-116): 5.88 µM
- IC50 (A549): 13.1 µM
- IC50 (THP-1): > 20 µM
- IC50 [2]: 5.58 µM

SMILES: COc1ccc(/C(=C\c2ccc(F)cc2)c2cccc3ccccc23)c(OC)c1OC
- IC50 (MCF7 [1]): 17.7 µM
- IC50 (MDA-MB-231): 16.2 µM
- IC50 (HCT-116): > 20 µM
- IC50 (A549): > 20 µM
- IC50 (THP-1): 9.08 µM

SMILES: COc1ccc(/C(=N/OCC(=O)O)c2cccc3ccccc23)c(OC)c1OC
- IC50 (MCF7 [1]): > 20 µM
- IC50 (MDA-MB-231): > 20 µM
- IC50 (HCT-116): 4.98 µM
- IC50 (A549): 17.2 µM
- IC50 (THP-1): > 20 µM

SMILES: CC/C(=C(\c1ccccc1)c1ccc(OCCN(C)C)cc1)c1ccccc1 [TAMOXIFEN]
- IC50 (MDA-MB-231): > 20 µM
- IC50 (HCT-116): 45 µM
- IC50 (A549): 10.1 µM
- IC50 (THP-1): 11.9 µM
- IC50 (MCF7 [4]): 1.31 mg/L (≈ 3.53 µM)

SMILES: COc1ccc(C(c2ccccc2O)c2cccc3ccccc23)c(OC)c1OC (stereo not given)
- IC50 (MCF7 [1]): 16.6 µM
- IC50 (MDA-MB-231): 17.7 µM
- IC50 (HCT-116): > 20 µM
- IC50 (A549): 13.6 µM
- IC50 (THP-1): > 20 µM

SMILES: COc1ccc(C(O)(Cc2ccccc2)c2cccc3ccccc23)c(OC)c1OC (stereo not given)
- IC50 (MCF7 [1]): 10.6 µM
- IC50 (MDA-MB-231): 4.78 µM
- IC50 (HCT-116): > 20 µM
- IC50 (A549): > 20 µM
- IC50 (THP-1): 12.4 µM
- IC50 [2]: 6.02 µM

SMILES: CCN(CC)CCOc1ccc(C(c2ccc(OC)c(OC)c2OC)c2cccc3ccccc23)cc1 (stereo not given)
- IC50 (MCF7 [1]): 15.5 µM
- IC50 (MDA-MB-231): 15.6 µM
- IC50 (HCT-116): 8.34 µM
- IC50 (A549): 11.5 µM
- IC50 (THP-1): 13.9 µM

SMILES: C=CCC(O)(c1ccc(OC)c(OC)c1OC)c1cccc2ccccc12 (stereo not given)
- IC50 (MCF7 [1]): > 20 µM
- IC50 (MDA-MB-231): > 20 µM
- IC50 (HCT-116): > 20 µM
- IC50 (A549): 10.7 µM
- IC50 (THP-1): > 20 µM

SMILES: C=CCOC(c1ccc(OC)c(OC)c1OC)c1cccc2ccccc12 (stereo not given)
- IC50 (MCF7 [1]): > 20 µM
- IC50 (MDA-MB-231): > 20 µM
- IC50 (HCT-116): > 20 µM
- IC50 (A549): 9.71 µM
- IC50 (THP-1): > 20 µM

SMILES: COc1ccc(C(c2ccc(OCCN(C)C)cc2)c2cccc3ccccc23)c(OC)c1OC (stereo not given)
- IC50 (MCF7 [1]): 15.2 µM
- IC50 (MDA-MB-231): 14.3 µM
- IC50 (HCT-116): 3.3 µM
- IC50 (A549): 10.2 µM
- IC50 (THP-1): 7.95 µM

SMILES: COc1ccc(C(c2ccc(OCCN3CCCCC3)cc2)c2cccc3ccccc23)c(OC)c1OC (stereo not given)
- IC50 (MCF7 [1]): 15.4 µM
- IC50 (MDA-MB-231): 15.2 µM
- IC50 (HCT-116): 11.9 µM
- IC50 (A549): 15 µM
- IC50 (THP-1): 16.6 µM

SMILES: COc1ccc(/C(=N/OC(C)=O)c2cccc3ccccc23)c(OC)c1OC
- IC50 (MCF7 [1]): > 20 µM
- IC50 (MDA-MB-231): 17 µM
- IC50 (HCT-116): 4.98 µM
- IC50 (A549): 17.2 µM
- IC50 (THP-1): > 20 µM

SMILES: COC(=O)c1ccc(COC(c2ccc(OC)c(OC)c2OC)c2cccc3ccccc23)cc1 (stereo not given)
- IC50 (MCF7 [1]): > 20 µM
- IC50 (MDA-MB-231): > 20 µM
- IC50 (HCT-116): > 20 µM
- IC50 (A549): 12 µM
- IC50 (THP-1): > 20 µM

SMILES: COc1ccc(C(O)(Cc2ccc(F)cc2)c2cccc3ccccc23)c(OC)c1OC (stereo not given)
- IC50 (MCF7 [1]): 7.56 µM
- IC50 (MDA-MB-231): 5.44 µM
- IC50 (HCT-116): > 20 µM
- IC50 (A549): 5.94 µM
- IC50 (THP-1): 5.86 µM

SMILES: COc1ccc(C(c2ccc(OCCO)cc2)c2cccc3ccccc23)c(OC)c1OC (stereo not given)
- IC50 (MCF7 [1]): > 20 µM
- IC50 (MDA-MB-231): > 20 µM
- IC50 (HCT-116): > 20 µM
- IC50 (A549): > 20 µM
- IC50 (THP-1): 16.6 µM

SMILES: COc1ccc(/C(=C/c2ccc(C)cc2)c2cccc3ccccc23)c(OC)c1OC
- IC50 (MCF7 [1]): > 20 µM
- IC50 (MDA-MB-231): 8.31 µM
- IC50 (HCT-116): > 20 µM
- IC50 (A549): 19.6 µM
- IC50 (THP-1): > 20 µM

SMILES: COc1ccc(C(c2ccc(O)cc2)c2cccc3ccccc23)c(OC)c1OC (stereo not given)
- IC50 (MCF7 [1]): 17.5 µM
- IC50 (MDA-MB-231): 17.4 µM
- IC50 (HCT-116): 16 µM
- IC50 (A549): 16.4 µM
- IC50 (THP-1): 9.45 µM

SMILES: COc1ccc(C(OCc2ccccc2)c2cccc3ccccc23)c(OC)c1OC (stereo not given)
- IC50 (MCF7 [1]): 14.1 µM
- IC50 (MDA-MB-231): > 20 µM
- IC50 (HCT-116): > 20 µM
- IC50 (A549): 13.5 µM
- IC50 (THP-1): > 20 µM

SMILES: COc1ccc(C(c2ccc(OCCN3CCCC3)cc2)c2cccc3ccccc23)c(OC)c1OC (stereo not given)
- IC50 (MCF7 [1]): 15.3 µM
- IC50 (MDA-MB-231): 14.4 µM
- IC50 (HCT-116): 10.8 µM
- IC50 (A549): 15.8 µM
- IC50 (THP-1): 5.4 µM

SMILES: COc1ccc(C(OCCN(C)C)c2cccc3ccccc23)c(OC)c1OC (stereo not given)
- IC50 (MCF7 [1]): 11.1 µM
- IC50 (MDA-MB-231): > 20 µM
- IC50 (HCT-116): > 20 µM
- IC50 (A549): 17.9 µM
- IC50 (THP-1): > 20 µM

SMILES: COc1ccc(C(c2ccccc2OCCN2CCCCC2)c2cccc3ccccc23)c(OC)c1OC (stereo not given)
- IC50 (MCF7 [1]): 12.4 µM
- IC50 (MDA-MB-231): 7.18 µM
- IC50 (HCT-116): 4.63 µM
- IC50 (A549): 9.86 µM
- IC50 (THP-1): 19.1 µM

SMILES: CCOC(=O)C(C)C(O)(c1ccc(OC)c(OC)c1OC)c1cccc2ccccc12 (stereo not given)
- IC50 (MCF7 [1]): > 20 µM
- IC50 (MDA-MB-231): > 20 µM
- IC50 (HCT-116): > 20 µM
- IC50 (A549): 4 µM
- IC50 (THP-1): > 20 µM

SMILES: C=C(c1ccc(OC)c(OC)c1OC)c1cccc2ccccc12
- IC50 (MCF7 [1]): 11.7 µM
- IC50 (MDA-MB-231): 4.66 µM
- IC50 (HCT-116): > 20 µM
- IC50 (A549): 19.8 µM
- IC50 (THP-1): 12.5 µM
- IC50 [2]: 9.03 µM
